Measured values published in US9133231B2, “Compounds for treating bacterial infections” (Yissum Research Development Company of the Hebrew …, priority 2010, dated 2015).

Tests used:
Type in all cases: cell-based
B. subtilis [1] = assay: Mature spore formation after induced sporulation (heat shock, CFU count)
Description: Cells were grown to an OD600 of 0.5. They were then washed with synthetic medium on a membrane filter and suspended in synthetic medium lacking amino acids in order to induce them to sporulate in the presence and the absence of inhibitors. Sporulation was monitored by fluorescence microscopy.
In order to further evaluate the effect of compounds A2 on sporulation, wild type bacteria were induced to sporulate in the presence of different concentrations (from 200 to 1.8 mM) of compound A2 and the process was monitored using fluorescence microscopy. With the aim of learning about the fate of the spores formed in the previously described cultures, an aliquot from the cell culture was taken and subjected to heat treatment (heat shock). The treatment included exposure of the cultures to 80° C. for 15 minutes and further plating on LB plates. After incubating the plates for 15 hours at 37° C., the colony forming units (CFUs) were quantified and the percent of mature spore formation was calculated (FIG. 2B-C).
The influence of the timing of addition of A2 was evaluated. Bacteria were induced to sporulate and A2 (1.8 mM) was added to the cultures every two hours (at T=0, T=2, T=4 and T=6). After growing overnight the cultures were heated and plated on LB plates.

B. subtilis [2] = assay: Growth and survival of B. subtilis growing in LB medium (CFU); conditions: 1.8 mM added at OD600 of 0.2, LB medium, 37° C.; FIG. 3
Description: The effect of A2 on growth and survival of B. subtilis growing in LB medium was then evaluated. Bacteria were grown overnight at 23° C. and diluted to an OD600 of 0.05. Subsequently, bacteria were further grown at 37° C. and A2 (1.8 mM) was added at an OD600 of 0.2. Bacterial growth was then continuously monitored by measuring the turbidity of the medium at 600 nm (OD600). Samples were taken and plated on LB plates. The plates were incubated at 37° C. for 15 hours. Colony forming units (CFU) were counted and compared to the untreated culture.

B. subtilis [3] = assay: Bacterial survival in CH medium (CFU after 24 hours of growth)
Description: Bacteria were grown in CH medium and samples were taken and plated on LB plates after 24 hours of growth. The plates were incubated at 37° C. for 15 hours. Colony forming units (CFU) were counted and compared to the untreated culture.
(§1) Cytotoxicity of compound A2 on eukaryotic (A431) and prokaryotic cells (B. Subtilis) was determined by using the methylthiazolyldiphenyl-tetrazolium bromide (MTT) assay. Bacteria were grown in CH medium and samples were taken and plated on LB plates after 24 hours of growth. The plates were incubated at 37° C. for 15 hours. Colony forming units (CFU) were counted and compared to the untreated culture. Viable bacterial cells are counted as CFU/mL: colony forming units per milliliter. Each CFU is equivalent to viable cell.

[4] = system: A431 Epidermoid carcinoma cells; assay: MTT cytotoxicity assay on A431 cells; conditions: 72 hours incubation, up to 10 different concentrations, FIG. 8
Description: as §1
In a standard procedure, the cell line (A431: epidermoid carcinoma) was incubated for 24 hours in 37° C. and 5% CO2. Subsequently, compound A2 was added to the wells in up to 10 different concentrations. Subsequent to incubation of cells with A2 for an additional 72 hours, the MTT reagent was added.

CC(C)C(=O)Nc1nc2c(ncn2[C@H]2CC(OC(=O)NCC(=O)NCC(=O)O)[C@@H](COC(=O)NCC(=O)NCC(=O)O)O2)c(=O)[nH]1 (stereo partly shown) [Compound A2]
reduction of the formation of mature spores (B. subtilis [1]; 0.22 mM (lowest tested concentration), heat shock 80° C. 15 minutes, CFU, FIG. 2B-C): about 70%
inhibition at 1800 µM (B. subtilis [1]; Bacillus subtilis, 1.8 mM added at T=0, T=2, T=4 or T=6 after inducing sporulation, in every case, FIG. 7, read-out: inhibition of the formation of mature spores): > 80%
inhibition of sporulation (B. subtilis [1]; rest of the tested concentrations (above 0.22 mM, up to 1.8 mM), FIG. 2B-C): 100%
number of CFUs compared to the untreated culture (B. subtilis [2]): substantially reduced the number of CFUs
cytotoxicity to B. Subtilis cells (prokaryotic) (B. subtilis [3]; CFU/mL after 24 hours of growth in CH medium, FIG. 8): completely cytotoxic
CFU/mL of the treated cultures (B. subtilis [3]; CH medium, after 24 hours of growth, increasing concentrations, FIG. 6): decreases in a dose dependent fashion
cytotoxicity to A431 cells (eukaryotic) [4]: not to A431 cells
